Source: US11332440B2, “4-oxo-alkylated tetramic acid compound, and preparation method thereof” (priority 2017, dated 2022)
“Also recorded” adds a separate entry of the source.

How the values were obtained:
[1] = Pharmacokinetic evaluation, plasma and brain concentrations; assay type: in vivo, ICR mice
Source text: Distribution of a medicament in the body is one of the important indicators to determine the dose and efficacy of the medicament. Thus, excellent candidate compounds should have good pharmacokinetic characteristics. In addition, since the compound of the present invention is intended to be used for the treatment of Alzheimer's disease, which is a disease of the central nervous system, the distribution pattern of the compound in the brain and the blood is also one of the subjects to be investigated. In this experiment, compound 50561 was administered to mice […] or by gavage, and the concentrations of the compound in blood and brain were measured at specific time points to determine the pharmacokinetic parameters.
Forty-eight male ICR mice purchased from Shanghai Sippr-BK Lab. Animal Co. Ltd were used in this experiment. The oral group was fasted for 10-14 hours before administration, and feeding was restored 4 hours after administration. Samples were collected from the intravenous administration group 0.083 h, 0.25 h, 0.5 h, 1 h, 2 h, 4 h, 8 h, and 24 h after administration, respectively; while for the oral administration group, about 0.5 mL of blood was collected from the heart 0.25 h, 0.5 h, 1 h, 2 h, 4 h, 6 h, 8 h, and 24 h after administration, respectively. Heparin sodium was used for anticoagulation. Blood samples were collected and placed on ice, and plasma was separated by centrifugation (centrifugation conditions: 8000 rpm, 6 minutes, 4C). The collected plasma was stored at −80° C. before analysis. After collecting plasma samples, brain tissues were collected, washed with normal saline, water-absorbed by filter paper, weighed immediately, and then placed in labeled tubes (one tube for one brain tissue). The samples to be tested were temporarily placed on ice before being stored in a −80° C. refrigerator.
The analysis methods of biological samples and the analysis of all samples were done by Medicilon Pharmaceutical Technology (Shanghai) Co., Ltd. The intraday accuracy evaluation of the quality control samples was carried out while analyzing the samples, and the accuracy of over 66.7% of the quality control samples was required to be between 80-120%.
When calculating the pharmacokinetic parameters, the BLQ before Cmax (including “No peak”) was calculated as 0; BLQ occurring after Cmax (including “No peak”) was not involved in the calculation. WinNonlin Professional V 5.2 (Pharsight, USA) was adopted to calculate the following pharmacokinetic parameters: AUC(0-t), AUC(0-∞), T1/2, MRT(0-∞), Cmax, and Tmax. The tissue/plasma ratio was to be calculated by the following formula based on the blood concentration data at different time points: Tissue/plasma ratio (mL/g)=tissue blood concentration/plasma blood concentration.

[2] = test system: Salmonella typhimurium TA100; assay: Mini Ames experiment, strain TA100; assay type: cell-based; settings: TA100, regardless of the presence or absence of S9
Experimental: Histidine auxotrophic strains of Salmonella typhimurium were cultured in a special medium with quite a low content of histidine. The strains were difficult to divide due to lack of nutrition. If a test compound has mutagenicity, a large number of cells will undergo reverse mutation, synthesizing histidine by themselves and developing into colonies visible to the naked eye. In view of the close relationship between mutagenicity and carcinogenesis of chemicals, this method has been widely used in screening carcinogens. Some chemicals need metabolic activation to induce mutagenicity. Mammalian microsomal enzyme S9 can be added into the test system to eliminate the influence of metabolic activation on generation of mutagenicity.
[…] Mini Ames test with compound 50561

In the case of `O=C1C=C(OCc2ccc(F)cc2)[C@H](Cc2ccccc2)N1` [Compound 50561], the Brain/plasma ratio ([1]; IV 1 mg/kg, 0.083 hr, G1-1) is reported as 2.604 mL/G, the Brain/plasma ratio ([1]; IV 1 mg/kg, 0.083 hr, G1-2) is reported as 2.645 mL/G and the Brain/plasma ratio ([1]; IV 1 mg/kg, 0.083 hr, G1-3) is reported as 2.249 mL/G. For the same compound, the Brain/plasma ratio ([1]; IV 1 mg/kg, 0.083 hr, Mean) was 2.499 mL/G, the Brain/plasma ratio ([1]; IV 1 mg/kg, 0.25 hr, G1-1) was 2.451 mL/G and the Brain/plasma ratio ([1]; IV 1 mg/kg, 0.25 hr, G1-2) was 2.415 mL/G. It also gave a Brain/plasma ratio ([1]; IV 1 mg/kg, 0.25 hr, G1-3) of 2.159 mL/G, a Brain/plasma ratio ([1]; IV 1 mg/kg, 0.25 hr, Mean) of 2.342 mL/G and a Brain/plasma ratio ([1]; IV 1 mg/kg, 0.5 hr, G1-1) of 2.540 mL/G. For the same compound, the Brain/plasma ratio ([1]; IV 1 mg/kg, 0.5 hr, G1-2) was 2.564 mL/G, the Brain/plasma ratio ([1]; IV 1 mg/kg, 0.5 hr, G1-3) was 2.361 mL/G and the Brain/plasma ratio ([1]; IV 1 mg/kg, 0.5 hr, Mean) was 2.488 mL/G. For the same compound, the Brain/plasma ratio ([1]; IV 1 mg/kg, 1 hr, G1-1) was 2.330 mL/G, the Brain/plasma ratio ([1]; IV 1 mg/kg, 1 hr, G1-2) was 3.941 mL/G and the Brain/plasma ratio ([1]; IV 1 mg/kg, 1 hr, G1-3) was 2.751 mL/G. For the same compound, the Brain/plasma ratio ([1]; IV 1 mg/kg, 1 hr, Mean) was 3.007 mL/G, the Blood concentration ([1]; IV 1 mg/kg, 2 hr, G1-1) was “BLQ” and the Brain tissue concentration ([1]; IV 1 mg/kg, 2 hr, G1-1) was “BLQ”. For the same compound, the Blood concentration ([1]; IV 1 mg/kg, 2 hr, G1-2) was “BLQ”, the Brain tissue concentration ([1]; IV 1 mg/kg, 2 hr, G1-2) was “BLQ” and the Blood concentration ([1]; IV 1 mg/kg, 2 hr, G1-3) was “BLQ”. The Brain tissue concentration ([1]; IV 1 mg/kg, 2 hr, G1-3) was “BLQ”, the Blood concentration ([1]; IV 1 mg/kg, 4 hr, G1-1) was “BLQ” and the Brain tissue concentration ([1]; IV 1 mg/kg, 4 hr, G1-1) was “BLQ”. For the same compound, the Blood concentration ([1]; IV 1 mg/kg, 4 hr, G1-2) was “BLQ”, the Brain tissue concentration ([1]; IV 1 mg/kg, 4 hr, G1-2) was “BLQ” and the Blood concentration ([1]; IV 1 mg/kg, 4 hr, G1-3) was “BLQ”. The Brain tissue concentration ([1]; IV 1 mg/kg, 4 hr, G1-3) was “BLQ”, the Blood concentration ([1]; IV 1 mg/kg, 8 hr, G1-1) was “BLQ” and the Brain tissue concentration ([1]; IV 1 mg/kg, 8 hr, G1-1) was “BLQ”. The Blood concentration ([1]; IV 1 mg/kg, 8 hr, G1-2) was “BLQ”, the Brain tissue concentration ([1]; IV 1 mg/kg, 8 hr, G1-2) was “BLQ” and the Blood concentration ([1]; IV 1 mg/kg, 8 hr, G1-3) was “BLQ”. For the same compound, the Brain tissue concentration ([1]; IV 1 mg/kg, 8 hr, G1-3) was “BLQ”, the Blood concentration ([1]; IV 1 mg/kg, 24 hr, G1-1) was “BLQ” and the Brain tissue concentration ([1]; IV 1 mg/kg, 24 hr, G1-1) was “BLQ”. The Blood concentration ([1]; IV 1 mg/kg, 24 hr, G1-2) was “BLQ”, the Brain tissue concentration ([1]; IV 1 mg/kg, 24 hr, G1-2) was “BLQ” and the Blood concentration ([1]; IV 1 mg/kg, 24 hr, G1-3) was “BLQ”. The Brain tissue concentration ([1]; IV 1 mg/kg, 24 hr, G1-3) was “BLQ”, the Brain/plasma ratio ([1]; PO 10 mg/kg, 0.25 hr, G2-1) was 1.948 mL/G and the Brain/plasma ratio ([1]; PO 10 mg/kg, 0.25 hr, G2-2) was 1.590 mL/G. It also gave a Brain/plasma ratio ([1]; PO 10 mg/kg, 0.25 hr, G2-3) of 2.093 mL/G, a Brain/plasma ratio ([1]; PO 10 mg/kg, 0.25 hr, Mean) of 1.877 mL/G and a Brain/plasma ratio ([1]; PO 10 mg/kg, 0.5 hr, G2-1) of 2.435 mL/G. It also gave a Brain/plasma ratio ([1]; PO 10 mg/kg, 0.5 hr, G2-2) of 2.027 mL/G, a Brain/plasma ratio ([1]; PO 10 mg/kg, 0.5 hr, G2-3) of 1.980 mL/G and a Brain/plasma ratio ([1]; PO 10 mg/kg, 0.5 hr, Mean) of 2.147 mL/G. It also gave a Brain/plasma ratio ([1]; PO 10 mg/kg, 1 hr, G2-1) of 2.485 mL/G, a Brain/plasma ratio ([1]; PO 10 mg/kg, 1 hr, G2-2) of 2.152 mL/G and a Brain/plasma ratio ([1]; PO 10 mg/kg, 1 hr, G2-3) of 2.158 mL/G. For the same compound, the Brain/plasma ratio ([1]; PO 10 mg/kg, 1 hr, Mean) was 2.265 mL/G, the Brain/plasma ratio ([1]; PO 10 mg/kg, 2 hr, G2-1) was 2.163 mL/G and the Brain/plasma ratio ([1]; PO 10 mg/kg, 2 hr, G2-2) was 2.454 mL/G. The Brain/plasma ratio ([1]; PO 10 mg/kg, 2 hr, G2-3) was 2.372 mL/G, the Brain/plasma ratio ([1]; PO 10 mg/kg, 2 hr, Mean) was 2.329 mL/G and the Brain/plasma ratio ([1]; PO 10 mg/kg, 4 hr, G2-1) was 2.373 mL/G. The Brain/plasma ratio ([1]; PO 10 mg/kg, 4 hr, G2-2) was 2.428 mL/G, the Brain/plasma ratio ([1]; PO 10 mg/kg, 4 hr, G2-3) was 1.355 mL/G and the Brain/plasma ratio ([1]; PO 10 mg/kg, 4 hr, Mean) was 2.052 mL/G. It also gave a Brain/plasma ratio ([1]; PO 10 mg/kg, 6 hr, G2-1) of 1.839 mL/G, a Brain/plasma ratio ([1]; PO 10 mg/kg, 6 hr, G2-2) of 2.764 mL/G and a Brain/plasma ratio ([1]; PO 10 mg/kg, 6 hr, G2-3) of 2.929 mL/G. It also gave a Brain/plasma ratio ([1]; PO 10 mg/kg, 6 hr, Mean) of 2.511 mL/G, a Brain/plasma ratio ([1]; PO 10 mg/kg, 8 hr, G2-1) of 1.575 mL/G and a Brain/plasma ratio ([1]; PO 10 mg/kg, 8 hr, G2-2) of 2.443 mL/G. For the same compound, the Brain tissue concentration ([1]; PO 10 mg/kg, 8 hr, G2-3) was “BLQ”, the Brain/plasma ratio ([1]; PO 10 mg/kg, 8 hr, Mean) was 2.009 mL/G and the Blood concentration ([1]; PO 10 mg/kg, 24 hr, G2-1) was “BLQ”. The Brain tissue concentration ([1]; PO 10 mg/kg, 24 hr, G2-1) was “BLQ”, the Blood concentration ([1]; PO 10 mg/kg, 24 hr, G2-2) was “BLQ” and the Brain tissue concentration ([1]; PO 10 mg/kg, 24 hr, G2-2) was “BLQ”. For the same compound, the Blood concentration ([1]; PO 10 mg/kg, 24 hr, G2-3) was “BLQ”, the Brain tissue concentration ([1]; PO 10 mg/kg, 24 hr, G2-3) was “BLQ” and the “blood-brain barrier permeability (content in brain tissue versus blood)” value ([1]; after intravenous injection and oral administration) was “good blood-brain barrier permeability”. The concentration at 0.083 h ([1]; male, ICR, mouse, brain, IV 1 mg/kg, 0.083 hr, G1-3, read-out: Brain tissue concentration) was 977 ng/g and the “change in the number of colonies / mutagenicity” value [2] was “did not cause more than twice of a change in the number of colonies; also recorded: no obvious mutagenicity”.
